pEC50: −log10 of the molar value. Calls of active or inactive are those of the source.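 The calls were made as follows: active = fitted EC50 no more than tenfold above the highest tested concentration; inconclusive = flat fit with 30 to 70% signal loss, or poor fit; inactive = the rest.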

A word on the EC50: it is the midpoint of the concentration-response curve. As a reminder, the pEC50 is the negative decadic logarithm of the EC50, by convention in mol/L.

In this experiment the test system is Candida albicans CaCi-2 growth (no fluconazole), Alamar Blue. The experiment in a line: C. albicans growth inhibition without fluconazole, dose response, counter-screen for fluconazole resistance reversal project, CaCi-2 strain, Alamar Blue fluorescence (AID 2387). Conditions: C. albicans CaCi-2 (fluconazole-resistant clinical isolate) growth without fluconazole, 48 h.
`O=C(NNC1=C(C(=O)C(F)(F)F)CCC1)c1cccc(Cl)c1`: the EC50 was > 16 µM (inactive).

On to `Oc1c(CN2CCc3ccccc3C2)cc(Cl)c2cccnc12`, for which the pEC50 is 5.32.

Turning to `CC(Nc1ncnc2ccccc12)c1ccccc1` (centres undefined), the EC50 is > 16 µM (inactive).

For the molecule `O=c1[nH]c(=S)[nH]nc1Cc1ccc(Cl)c(Cl)c1`, the EC50 is > 16 µM (inactive).

Consider `O=C(Nc1nnc(C2COc3ccccc3O2)o1)c1ccc(F)cc1` (centres undefined), for which the EC50 is > 15 µM (inactive).

Regarding `CC(C)CC(=O)NC(c1cccs1)c1ccc2cccnc2c1O` (centres undefined), the pEC50 is 4.85.

In the case of `COc1ccc(OC)c(C2C(C(=O)c3cc4ccccc4o3)=C(O)C(=O)N2c2cc(C)on2)c1` (centres undefined), the EC50 was > 15 µM (inactive).

With `CNC(=O)Nc1cc(C(F)(F)F)cc(C(F)(F)F)c1`, the EC50 is > 15 µM (inactive).

On to `CCCC(=O)NC(c1ccccc1OC)c1ccc2cccnc2c1O` (centres undefined), for which the EC50 was > 16 µM (inactive).

On to `COc1ccc(-c2nnc(NC(=O)c3ccc(F)cc3)o2)cc1`, for which the EC50 was > 15 µM (inactive).

Consider `O=Cc1ccc(O)c2ncccc12`, for which the negative logarithm of the EC50 (pEC50) was 5.20.

Turning to `CCC(=O)NC(c1cccs1)c1cc(Cl)c2cccnc2c1O` (centres undefined), the pEC50 is 4.79.

Turning to `CCSc1nnc(-c2ccc(C)cc2)c2ccccc12`, the EC50 was > 15 µM (inactive).

For `CCN(CC)S(=O)(=O)c1cc(OC)ccc1N=Nc1ccc(O)c2ncccc12`, the pEC50 is 5.16.

`CCc1ccccc1NC(=S)N=Nc1c(O)n(C)c2ccc(S(=O)(=O)N3CCOCC3)cc12`: the EC50 was > 15 µM (inactive).

In the case of `Cn1cc(C(c2ccccn2)c2cn(C)c3ccccc23)c2ccccc21`, the EC50 was > 15 µM (inactive).

In the case of `CC1CCN(Cc2c(C(=O)N/N=C/c3cc(Br)ccc3O)nnn2-c2nonc2N)CC1`, the EC50 is > 16 µM (inactive).

Consider `CC(C)n1cc(/C=C/c2cc[n+](C)cc2)c2ccccc21`, for which the EC50 was > 15 µM (inactive).

Regarding `CC(=O)NC1CCCN(O)C(=O)/C=C(\C)CCOC(=O)C(NC(C)=O)CCCN(O)C(=O)/C=C(\C)CCOC(=O)C(NC(C)=O)CCCN(O)C(=O)/C=C(\C)CCOC1=O` (centres undefined), the pEC50 was 5.69.

Consider `O=C(N/N=C/c1ccccc1O)c1cccc(C(F)(F)F)c1`, for which the EC50 is > 15 µM (inactive).

With `COc1ccc(C(=O)N2c3ccccc3C=CC2C#N)cc1` (centres undefined), the EC50 is > 15 µM (inactive).

`Clc1ccc(CONc2ncnc3nonc23)c(Cl)c1`: the EC50 was > 16 µM (inactive).

For `Cc1cccc(/C=C/C(=O)c2cc(Br)ccc(=O)c2O)c1`, the negative-log EC50 (pEC50) is 4.84.

Take `COc1cccc(/C=N/NC(=O)c2c(C)nc3ccc(Br)cn23)c1O`: the EC50 was > 16 µM (inactive).

In the case of `O=C(Oc1c(CN2CCOCC2)cc(Cl)c2cccnc12)c1ccc(F)cc1`, the EC50 is > 16 µM (inactive).

In the case of `CS(=O)(=O)NN1C(=O)c2ccccc2NC1c1cccc2cccnc12` (centres undefined), the EC50 was > 16 µM (inactive).

Regarding `O=[N+]([O-])c1cc(CN2CCN(c3ccccc3)CC2)c(O)c2ncccc12`, the pEC50 is 5.21.

As for `COc1ccc(OC)c(/C=C2\SC(=S)N(NS(=O)(=O)c3ccc(C)cc3)C2=O)c1`, the EC50 is > 15 µM (inactive).

On to `O=[N+]([O-])c1ccc(O)c(Nc2ncnc3ccc(Br)cc23)c1`, for which the EC50 is > 16 µM (inactive).

In the case of `O=C(CC(=O)c1cccc([N+](=O)[O-])c1)Nc1ccccc1Cl`, the EC50 is > 16 µM (inactive).

For the molecule `Cc1cc(Nc2ccccc2)nc(NCc2ccccc2)n1`, the EC50 was > 15 µM (inactive).

Consider `Cc1ccc(NC(=O)c2ccccc2NS(=O)(=O)c2ccc(Cl)s2)cc1`, for which the EC50 was > 15 µM (inactive).

On to `Cc1ccc(OCC(=O)NNC(=S)NC(=O)C2CC2)c(C)c1`, for which the EC50 was > 15 µM (inactive).

Take `O=c1c2cc(Br)ccc2nc(-c2cccc(C(F)(F)F)c2)n1O`: the pEC50 is 4.84.

As for `COC(=O)c1ccc(COc2ccc(/C=C(\C#N)c3nc4ccccc4[nH]3)cc2OC)o1`, the EC50 was > 16 µM (inactive).

`CCOC(=O)c1c(NC(=S)NCC2CCCO2)sc(C)c1C` (centres undefined): the EC50 is > 16 µM (inactive).

For `Cc1ccc(-n2c(O)c(C=Nc3ccccc3-c3n[nH]c(=S)[nH]c3=O)c3ccccc3c2=O)cc1C`, the EC50 is > 16 µM (inactive).

For `CCOc1ccc(/C=C/C2=CC(C)(C)NC(=S)N2)cc1`, the EC50 is > 15 µM (inactive).

Take `COc1cccc(C2CC(c3ccc(NS(C)(=O)=O)cc3)=NN2C(=O)c2ccccc2)c1OC` (centres undefined): the EC50 was > 15 µM (inactive).

For `Oc1ccc(N=Nc2ccc3c(c2)OCCO3)c2cccnc12`, the negative-log EC50 (pEC50) is 5.44.

`O=C(Nc1cccc(-c2cn3ccccc3n2)c1)c1cccc(Cl)c1`: the EC50 was > 16 µM (inactive).

On to `CC(CC(=O)Nc1ncc([N+](=O)[O-])s1)c1ccccc1` (centres undefined), for which the EC50 was > 16 µM (inactive).

On to `COc1cccc(COc2cc3ccccc3nc2C)c1`, for which the EC50 is > 16 µM (inactive).

Regarding `Oc1c(C(c2ccc(Cl)cc2)N2CCCC2)cc(Cl)c2cccnc12` (centres undefined), the pEC50 was 5.50.

Consider `CCCCCCOC(=O)C[N+](C)(C)CCOC1CC2CCC1(C)C2(C)C` (centres undefined), for which the EC50 is > 16 µM (inactive).

For `CCc1nnc(NC(=O)CN2CCN(c3nc(-c4ccccc4)cs3)CC2)s1`, the EC50 was > 15 µM (inactive).

Turning to `CCNC(=S)NNC(=O)c1cc(-c2cc(C)ccc2C)nc2ccccc12`, the EC50 was > 15 µM (inactive).

Take `Cc1c(Cl)c([N+](=O)[O-])nn1Cc1ccc(C(=O)N/N=C\c2cc(Cl)ccc2O)o1`: the EC50 is > 16 µM (inactive).

In the case of `CN1/C(=C/C(=O)c2cccs2)Sc2ccccc21`, the EC50 was > 15 µM (inactive).

For `CCN1/C(=C/c2sc(-c3ccccc3C)c[n+]2C)Sc2ccccc21`, the EC50 was > 15 µM (inactive).

On to `N#Cc1cc(C#N)c(N2CCN(c3cccc(Cl)n3)CC2)nc1N`, for which the EC50 was > 15 µM (inactive).

Take `Fc1cccc(-n2cc(-c3ccccc3)c3c(=S)nc[nH]c32)c1`: the EC50 was > 15 µM (inactive).

On to `O=C(Nc1nnc(CCc2ccccc2)s1)c1ccco1`, for which the EC50 was > 15 µM (inactive).

With `CC(=O)O/N=C/c1c(N2CCOCC2)n(C)c2ccccc12`, the EC50 is > 16 µM (inactive).

Take `O=[N+]([O-])c1nn(-c2ccc(Cl)cc2)n(O)c1=NCc1cccnc1`: the EC50 is > 15 µM (inactive).

As for `COc1ccc(CCNc2ncnc3sc(C)cc23)cc1OC`, the EC50 is > 15 µM (inactive).

On to `CC(=O)Nc1ccc(Nc2c3ccccc3nc3ccccc23)cc1`, for which the EC50 was > 15 µM (inactive).

Consider `CCCOc1ccc(C(=O)NNC(=S)NC(=O)CC)cc1`, for which the EC50 is > 15 µM (inactive).

On to `CCC(C)c1ccc(O)c(NC(=S)NC(=O)c2cccnc2)c1` (centres undefined), for which the EC50 was > 15 µM (inactive).

In the case of `O=C(Nc1nnc(SCc2ccc(Cl)cc2)s1)c1cnccn1`, the EC50 is > 16 µM (inactive).

Consider `Oc1c(C(Nc2nc3ccccc3s2)c2ccco2)ccc2cccnc12` (centres undefined), for which the pEC50 was 5.33.

Turning to `CCN1/C(=C/C=C/c2oc3ccc(-c4ccccc4)cc3[n+]2CC)Oc2ccc(-c3ccccc3)cc21`, the pEC50 was 5.18.

On to `O=C(CCS(=O)(=O)c1ccc(F)cc1)Nc1nc(-c2ccncc2)cs1`, for which the EC50 was > 15 µM (inactive).

For the molecule `CC1CCN(Cc2c(C(=O)N/N=C/c3cc(Cl)ccc3O)nnn2-c2nonc2N)CC1`, the EC50 is > 15 µM (inactive).

Source of the values: PubChem BioAssay AID2387 (Broad Institute, 2010).
